Measurements taken from article PMC11173382, “In Vitro Investigations into the Potential Drug Interactions of Pseudoginsenoside DQ Mediated by Cytochrome P450 and Human Drug Transporters” (Molecules, 2024).

Columns and labels:
Format in all cases: in vitro ADME
hOAT3 = target: T1, hOAT3 (Homo sapiens, UniProt Q8TCC7); test: Substrates uptake assay, S2-OAT3 cells (3H-ES); settings: 3H-ES 0.05 µM, 2 min
T1 sequence (Q8TCC7 1-542): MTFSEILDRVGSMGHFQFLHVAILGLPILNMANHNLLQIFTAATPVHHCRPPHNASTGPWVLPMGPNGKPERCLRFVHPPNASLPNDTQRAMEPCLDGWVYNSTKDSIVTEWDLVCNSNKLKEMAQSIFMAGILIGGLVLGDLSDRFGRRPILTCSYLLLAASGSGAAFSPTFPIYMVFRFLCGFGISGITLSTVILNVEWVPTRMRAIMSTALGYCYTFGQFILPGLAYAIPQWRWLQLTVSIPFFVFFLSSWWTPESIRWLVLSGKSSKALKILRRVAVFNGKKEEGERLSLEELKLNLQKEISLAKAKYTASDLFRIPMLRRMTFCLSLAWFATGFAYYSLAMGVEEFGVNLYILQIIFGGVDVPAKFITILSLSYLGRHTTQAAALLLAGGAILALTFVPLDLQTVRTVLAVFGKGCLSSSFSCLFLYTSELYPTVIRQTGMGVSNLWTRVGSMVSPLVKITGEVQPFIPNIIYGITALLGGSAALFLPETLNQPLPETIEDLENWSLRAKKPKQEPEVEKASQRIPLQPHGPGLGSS

CYP2C9 = target: T2, CYP2C9 (Homo sapiens, UniProt P11712); test: CYP450 inhibition assay in human liver microsomes, CYP2C9; settings: HLM 0.1 mg/mL; probe diclofenac 10 µM; 10 min
T2 construct: tissue Corning 452117; host or cells: human liver microsomes
T2 sequence (P11712 whole entry): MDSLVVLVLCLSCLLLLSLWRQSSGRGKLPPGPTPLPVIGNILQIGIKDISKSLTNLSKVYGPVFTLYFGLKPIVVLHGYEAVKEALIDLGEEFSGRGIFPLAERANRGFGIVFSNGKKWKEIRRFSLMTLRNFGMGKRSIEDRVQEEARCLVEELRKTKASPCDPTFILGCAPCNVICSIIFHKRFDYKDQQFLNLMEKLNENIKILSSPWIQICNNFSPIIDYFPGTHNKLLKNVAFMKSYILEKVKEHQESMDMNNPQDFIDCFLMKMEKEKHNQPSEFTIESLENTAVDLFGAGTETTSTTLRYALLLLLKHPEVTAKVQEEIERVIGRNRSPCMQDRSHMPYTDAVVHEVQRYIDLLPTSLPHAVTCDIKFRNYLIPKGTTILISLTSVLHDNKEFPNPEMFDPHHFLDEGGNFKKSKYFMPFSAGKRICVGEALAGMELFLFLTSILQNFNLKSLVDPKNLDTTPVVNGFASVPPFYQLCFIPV
Description: (§1) To evaluate the reliability and reproducibility of the CYP450 inhibition assay, we measured the inhibitory effects of selected positive control inhibitors of each CYP450 enzyme in human liver microsomes (HLM, Table 1, Figure 2). The potency of inhibition was estimated by observing the alteration in concentration of metabolites of CYP450 substrates (Table 1).
(§2) Reagents preparation. […] The stock solution of PDQ (10 mM) was prepared with methanol and further diluted to the range of 3 µM to 3 mM with methanol to ensure that the solvent of different PDQ samples contained the same amount (1%) of methanol.
(§3) The stock solutions of the positive control inhibitors and the probe substrates of CYP450 enzymes were prepared in methanol.
(§4) CYP450 inhibition assay. […] The assay was conducted in polypropylene 96-well plates (2.2 mL/well, Apricot Designs Inc., Covina, CA, USA).
(§5) The total volume of the reaction is 200 μL. […] The substrates and analytes were analyzed by LC-MS/MS (API4000, Applied Biosystems, Singapore; HPLC, Shimadzu, Japan). […]
(§6) Data analysis. […] The IC50 was determined by fitting the dependence of the relative remaining activity (y = Vi/V0) to the following three-parameter equation (Equation (1)). […]

CYP2D6 = target: T3, CYP2D6 (Homo sapiens, UniProt P10635); test: CYP450 inhibition assay in human liver microsomes, CYP2D6; settings: HLM 0.1 mg/mL; probe dextromethorphan 10 µM; 20 min
T3 construct: tissue Corning 452117; host or cells: human liver microsomes
T3 sequence (P10635 whole entry): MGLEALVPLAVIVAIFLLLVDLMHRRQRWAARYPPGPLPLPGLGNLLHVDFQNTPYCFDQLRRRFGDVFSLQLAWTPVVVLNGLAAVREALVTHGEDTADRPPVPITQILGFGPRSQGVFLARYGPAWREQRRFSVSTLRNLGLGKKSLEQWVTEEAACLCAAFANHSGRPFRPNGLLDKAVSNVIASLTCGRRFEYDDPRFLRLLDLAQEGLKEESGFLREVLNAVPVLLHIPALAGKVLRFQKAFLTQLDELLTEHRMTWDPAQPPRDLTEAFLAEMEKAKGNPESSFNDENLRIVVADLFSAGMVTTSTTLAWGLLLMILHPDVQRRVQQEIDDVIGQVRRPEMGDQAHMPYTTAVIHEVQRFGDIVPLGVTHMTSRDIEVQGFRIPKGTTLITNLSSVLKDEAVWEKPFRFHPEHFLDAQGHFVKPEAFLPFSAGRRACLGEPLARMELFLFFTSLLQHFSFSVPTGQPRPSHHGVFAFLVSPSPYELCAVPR
Description: as §1, §2, §3, §4, §5, §6

Compound: CC(C)(O)[C@@H]1CC[C@@](C)([C@H]2CC[C@]3(C)[C@@H]2[C@H](O)C[C@@H]2[C@@]4(C)CC[C@H](O)C(C)(C)[C@@H]4CC[C@]23C)O1 [PDQ, (20S,24S)-dammar-20,24-epoxy-3β, 12β, 25-triol]
- IC50 (hOAT3): > 30 µM
- IC50 (CYP2C9): 11.7 µM
- IC50 (CYP2D6): 52 µM
